The numbers were not newly measured in US20220273698A1, “MEDICINAL AND/OR PHARMACEUTICAL COMPOSITIONS FOR INTRAVESICAL INSTILLATION, PREPARATION AND USE THEREOF” (priority 2019, published 2022), which cites them from elsewhere.

For data set [1] the following is noted: oral medicine.
The conditions of data set [2]: taking PPS over a long time.

pentosan polysulfate sodium [Elmiron]: in data set [1], the active agent absorbed is given as 5%. For the same substance, the side effect result in data set [2] is reported as “pigmentary maculopathy”.
